Test results: patent US10280159B2 (AbbVie Deutschland GmbH & Co. KG, priority 2015, dated 2019)
Counter-ions that a name gives are not always drawn. Like-named read-outs stand apart in the source and are kept apart here.

What was measured:
Assay type in all cases: cell-based
[1] = target: T1, human S1PR4 (Homo sapiens, UniProt O95977); assay: Intracellular Ca2+ release (FLIPR) agonist potency, S1P4
T1 construct: host or cells: CHO-K1
T1 sequence (O95977 1-384): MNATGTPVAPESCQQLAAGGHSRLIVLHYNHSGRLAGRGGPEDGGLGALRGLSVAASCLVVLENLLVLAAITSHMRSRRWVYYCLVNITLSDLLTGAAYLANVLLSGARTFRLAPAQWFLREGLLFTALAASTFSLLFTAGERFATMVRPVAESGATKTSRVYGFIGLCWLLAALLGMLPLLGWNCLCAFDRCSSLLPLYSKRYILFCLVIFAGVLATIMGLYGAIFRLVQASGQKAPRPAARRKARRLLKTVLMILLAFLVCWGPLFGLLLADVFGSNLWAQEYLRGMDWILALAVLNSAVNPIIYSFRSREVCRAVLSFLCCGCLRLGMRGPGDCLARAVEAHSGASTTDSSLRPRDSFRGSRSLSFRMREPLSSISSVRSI
How it was run: (§1)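 CHO-K1/receptor/aequorin/Gq/i5 cells, F-12 Ham + 10% FBS. Ca2+ release read on FLIPR Tetra. EC50 by nonlinear fit after normalizing to phospho-fingolimod reference curve.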

[2] = target: T2, human S1PR5 (Homo sapiens, UniProt Q9H228); assay: Intracellular Ca2+ release (FLIPR) agonist potency, S1P5; conditions: recombinant CHO-K1 cells expressing human S1PR5, aequorin, Gq/i5, Calcium 5 FLIPR
T2 construct: host or cells: CHO-K1
T2 sequence (Q9H228 whole entry): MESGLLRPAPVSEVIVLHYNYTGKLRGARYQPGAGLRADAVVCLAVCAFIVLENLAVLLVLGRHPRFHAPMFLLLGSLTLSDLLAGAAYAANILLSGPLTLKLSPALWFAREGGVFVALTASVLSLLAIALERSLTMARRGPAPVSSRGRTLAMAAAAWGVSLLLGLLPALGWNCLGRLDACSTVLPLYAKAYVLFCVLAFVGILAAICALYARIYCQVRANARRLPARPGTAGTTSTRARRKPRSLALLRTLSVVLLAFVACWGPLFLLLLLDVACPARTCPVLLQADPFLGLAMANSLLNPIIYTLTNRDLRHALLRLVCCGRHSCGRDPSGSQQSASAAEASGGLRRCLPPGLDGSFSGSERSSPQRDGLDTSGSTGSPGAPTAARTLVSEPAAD
How it was run: as §1

[3] = target: T3, human S1PR1 (Homo sapiens, UniProt P21453); assay: Intracellular Ca2+ release (FLIPR) agonist potency, S1P1
T3 construct: host or cells: CHO-K1
T3 sequence (P21453 whole entry): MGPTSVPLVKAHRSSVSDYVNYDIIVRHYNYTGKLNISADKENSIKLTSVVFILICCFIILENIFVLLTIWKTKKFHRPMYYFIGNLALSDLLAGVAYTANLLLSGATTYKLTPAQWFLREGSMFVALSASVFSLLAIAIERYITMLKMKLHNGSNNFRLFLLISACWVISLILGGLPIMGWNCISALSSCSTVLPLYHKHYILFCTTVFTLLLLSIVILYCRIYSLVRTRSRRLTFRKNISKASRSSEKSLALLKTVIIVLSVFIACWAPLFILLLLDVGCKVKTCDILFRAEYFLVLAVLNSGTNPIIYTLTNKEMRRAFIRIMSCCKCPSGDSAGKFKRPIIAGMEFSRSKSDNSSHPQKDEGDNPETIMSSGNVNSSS
How it was run: as §1

[4] = recombinant CHO-K1 cells expressing human S1PR4, aequorin, Gq/i5, Calcium 5 FLIPR, read-out: S1P4 EC50
[5] = recombinant CHO-K1 cells expressing human S1PR1, aequorin, Gq/i5, Calcium 5 FLIPR, read-out: S1P1 EC50

| EC50 [1, 4] [nM] | EC50 ([2]; read-out: S1P5 EC50 range) [nM] | EC50 [3, 5] [nM] | SMILES | EC50 [1] [nM] | EC50 ([2]; S1P5 EC50 range) [nM] | EC50 [3] [nM] |
| --- | --- | --- | --- | --- | --- | --- |
| > 1000 | 10 to 100 | > 1000 | O=C(O)C1CN(C2COc3cc(OCc4c(Cl)cccc4Cl)ccc3C2)C1 (single isomer, unassigned) [Compound 144, 1-(7-((2,6-dichlorobenzyl)oxy)chroman-3-yl)azetidine-3-carboxylic acid] |  |  |  |
| > 1000 | 1000 to 10000 | > 1000 | COc1cccc(COc2ccc3c(c2)OCC(N2CC(C(=O)O)C2)C3)c1F (stereo not drawn) [Compound 86, 1-[7-[(2-fluoro-3-methoxy-phenyl)methoxy]chroman-3-yl]azetidine-3-carboxylic acid] |  |  |  |
| > 1000 | 1000 to 10000 | > 1000 | O=C(O)C1CN(C2COc3cc(OCc4ccccc4F)ccc3C2)C1 (stereo not drawn) [Compound 3, 1-(7-((2-fluorobenzyl)oxy)chroman-3-yl)azetidine-3-carboxylic acid] |  |  |  |
| > 1000 | 1000 to 10000 | > 1000 | O=C(O)C1CN(C2COc3cc(OCc4ccc(C(F)(F)F)c(F)c4)ccc3C2)C1 (stereo not drawn) [Compound 103, 1-[7-[[3-fluoro-4-(trifluoromethyl)phenyl]methoxy]chroman-3-yl]azetidine-3-carboxylic acid] |  |  |  |
| > 1000 | 1000 to 10000 | > 1000 | Cc1cccc(COc2ccc3c(c2)OCC(N2CC(C(=O)O)C2)C3)c1 (stereo not drawn) [Compound 58, 1-(7-((3-methylbenzyl)oxy)chroman-3-yl)azetidine-3-carboxylic acid] |  |  |  |
| > 1000 | 1000 to 10000 | > 1000 | CC(Oc1ccc2c(c1)OCC(N1CC(C(=O)O)C1)C2)c1ccccc1F (stereo not drawn) [Compound 107, 1-[7-[1-(2-fluorophenyl)ethoxy]chroman-3-yl]azetidine-3-carboxylic acid] |  |  |  |
| > 1000 | 1000 to 10000 | > 1000 | Cc1cc(C)cc(COc2ccc3c(c2)CCC(OCC(=O)O)C3)c1 (stereo not drawn) [Compound 156, 2-[6-[(3,5-dimethylphenyl)methoxy]tetralin-2-yl]oxyacetic acid] |  |  |  |
| > 1000 | 1000 to 10000 | > 1000 | O=C(O)COC1COc2cc(OCc3c(F)ccc(Cl)c3F)ccc2C1 (stereo not drawn) [Compound 234, 2-((7-((3-chloro-2,6-difluorobenzyl)oxy)chroman-3-yl)oxy)acetic acid] |  |  |  |
| > 1000 | 1000 to 10000 | > 1000 | CCC1(C(=O)O)CN([C@@H]2COc3cc(OCc4c(Cl)cccc4Cl)ccc3C2)C1 [Compound 140, (S)-1-(7-((2,6-dichlorobenzyl)oxy)chroman-3-yl)-3-ethylazetidine-3-carboxylic acid] |  |  |  |
| < 1000 | < 10 | > 1000 | CCc1cccc(F)c1COc1ccc2c(c1)OCC(N1CCC(CC(=O)O)C1)C2 (stereo not drawn) [Compound 130, 2-(1-(7-((2-ethyl-6-fluorobenzyl)oxy)chroman-3-yl)pyrrolidin-3-yl)acetic acid] |  |  |  |
| < 1000 | 10 to 100 | > 1000 | CCc1cccc(F)c1COc1ccc2c(c1)OCC(NC13CC(C(=O)O)(C1)C3)C2 (stereo not drawn) [Compound 122, 3-((7-((2-ethyl-6-fluorobenzyl)oxy)chroman-3-yl)amino)bicyclo[1.1.1]pentane-1-carboxylic acid] |  |  |  |
|  |  |  | CCc1cccc(F)c1COc1ccc2c(c1)OC[C@@H](NCc1cc(O)no1)C2 [Compound 136, (S)-5-(((7-((2-ethyl-6-fluorobenzyl)oxy)chroman-3-yl)amino)methyl)isoxazol-3-ol] | < 1000 | < 10 | > 1000 |
| > 1000 | < 10 | < 1000 | O=C(O)CNC1COc2cc(-c3ccc(OCc4cccc(F)c4F)cc3)ccc2C1 (stereo not drawn) [Compound 131, (7-(4-((2,3-difluorobenzyl)oxy)phenyl)chroman-3-yl)glycine] |  |  |  |
| < 1000 | < 10 | < 1000 | CCc1cccc(Cl)c1COc1ccc2c(c1)OCC(N1CCC(C(=O)O)CC1)C2 (stereo not drawn) [Compound 111, 1-[7-[(2-chloro-6-ethyl-phenyl)methoxy]chroman-3-yl]piperidine-4-carboxylic acid; Salt with 2,2,2-trifluoroacetic acid] |  |  |  |
| < 1000 | < 10 | > 1000 | CCc1cccc(F)c1COc1ccc2c(c1)OC[C@@H](N1CC(C)(C(=O)O)C1)C2 [Compound 139, (S)-1-(7-((2-ethyl-6-fluorobenzyl)oxy)chroman-3-yl)-3-methylazetidine-3-carboxylic acid] |  |  |  |
| > 1000 | 1000 to 10000 | > 1000 | O=C(O)COC1CCc2cc(OCc3cc(C(F)(F)F)ccc3F)ccc2C1 (stereo not drawn) [Compound 172, 2-[6-[[2-fluoro-5-(trifluoromethyl)phenyl]methoxy]tetralin-2-yl]oxyacetic acid] |  |  |  |
| > 1000 | 1000 to 10000 | > 1000 | O=C(O)CCOC1CCc2cc(OCc3ccc(Cl)c(Cl)c3)ccc2C1 (stereo not drawn) [Compound 181, 3-[6-[(3,4-dichlorophenyl)methoxy]tetralin-2-yl]oxypropanoic acid] |  |  |  |
| > 1000 | < 10 | > 1000 | CCc1cccc(Cl)c1COc1ccc2c(c1)CCC(OCC(=O)O)C2 (stereo not drawn) [Compound 142] |  |  |  |
| > 1000 | 1000 to 10000 | > 1000 | O=C(O)C1CN(C2COc3cc(OCCc4ccccc4Cl)ccc3C2)C1 (stereo not drawn) [Compound 227, 1-[7-[2-(2-chlorophenyl)ethoxy]chroman-3-yl]azetidine-3-carboxylic acid] |  |  |  |
| > 1000 | 100 to 1000 | > 1000 | O=C(O)C1CN(C2COc3cc(OCc4ccccc4Cl)ccc3C2)C1 (stereo not drawn) [Compound 63, 1-(7-((2-chlorobenzyl)oxy)chroman-3-yl)azetidine-3-carboxylic acid] |  |  |  |
| > 1000 | 1000 to 10000 | > 1000 | O=C(O)C1(NC2COc3cc(OCc4c(Cl)cccc4Cl)ccc3C2)CCC1 (stereo not drawn) [Compound 119, 1-((7-((2,6-dichlorobenzyl)oxy)chroman-3-yl)amino)cyclobutane-1-carboxylic acid] |  |  |  |
| > 1000 | < 10 | < 1000 | CN(CC(=O)O)C1COc2cc(OCc3ccc(OCc4cccc(F)c4F)cc3)ccc2C1 (stereo not drawn) [Compound 133, N-(7-((4-((2,3-difluorobenzyl)oxy)benzyl)oxy)chroman-3-yl)-N-methylglycine] |  |  |  |
| > 1000 | 1000 to 10000 | > 1000 | Cc1ccc(F)cc1COc1ccc2c(c1)CCC(OCC(=O)O)C2 (stereo not drawn) [Compound 155, 2-[6-[(5-fluoro-2-methyl-phenyl)methoxy]tetralin-2-yl]oxyacetic acid] |  |  |  |
| > 1000 | 1000 to 10000 | > 1000 | O=C(O)CCOC1CCc2cc(OCc3ccc(F)cc3)ccc2C1 (stereo not drawn) [Compound 194, 3-[6-[(4-fluorophenyl)methoxy]tetralin-2-yl]oxypropanoic acid] |  |  |  |
| > 1000 | 100 to 1000 | > 1000 | O=C(O)C1CN(C2COc3cc(C#CC4CCCCC4)ccc3C2)C1 (stereo not drawn) [Compound 39, 1-(7-(cyclohexylethynyl)chroman-3-yl)azetidine-3-carboxylic acid] |  |  |  |
| > 1000 | 1000 to 10000 | > 1000 | COc1cccc(F)c1COc1ccc2c(c1)OCC(N1CC(C(=O)O)C1)C2 (stereo not drawn) [Compound 101, 1-[7-[(2-fluoro-6-methoxy-phenyl)methoxy]chroman-3-yl]azetidine-3-carboxylic acid] |  |  |  |
